We go through 27 targets from the supplement of paper PMC12463676, “Small-molecule dissolution of stress granules by redox modulation benefits ALS models” (Nature Chemical Biology, 2025).

Compound in one assay: O=[As]([O-])(O)O.[K+] [potassium arsenate]
The assay can be described thus: thermal stability z-score vs DMSO; higher = more thermally stabilized by treatment. The note with it: HeLa; arsenate concentration 1 mM. The protocol: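 Cellular thermal proteome profiling in HeLa cells treated with 1 mM arsenate for 1 h (DMSO pretreatment), heated to ten temperatures (37-66.3 °C). Soluble protein was quantified by TMT mass spectrometry relative to DMSO controls; the thermal stability score was transformed to a z-score; mean of n = 3 experiments.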

Compound in a further assay: NC(=O)CCCCC1CCSS1 [lipoamide]
Described as above. To be noted: HeLa, lipoamide concentration 100 µM. The protocol: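 Cellular thermal proteome profiling in HeLa cells. Cells were treated with 100 µM lipoamide for 1 h, with or without 1 mM arsenate for a further 1 h, then heated to ten temperatures (37-66.3 °C), and soluble protein was quantified by TMT mass spectrometry relative to 0.1% DMSO controls. The thermal stability score (sum of log2 fold changes minus the abundance score) was transformed to a z-score; mean of n = 3 experiments.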

Where [1] appears, read: arsenate co-treatment: 1 mM arsenate 1 h.
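Also: each temperature applied for 3 min, abundance score taken as mean log2 fold change at the two lowest temperatures, z-score obtained by mean subtraction and division by SD.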

Chain of UniProt O75600 (O75600 whole entry): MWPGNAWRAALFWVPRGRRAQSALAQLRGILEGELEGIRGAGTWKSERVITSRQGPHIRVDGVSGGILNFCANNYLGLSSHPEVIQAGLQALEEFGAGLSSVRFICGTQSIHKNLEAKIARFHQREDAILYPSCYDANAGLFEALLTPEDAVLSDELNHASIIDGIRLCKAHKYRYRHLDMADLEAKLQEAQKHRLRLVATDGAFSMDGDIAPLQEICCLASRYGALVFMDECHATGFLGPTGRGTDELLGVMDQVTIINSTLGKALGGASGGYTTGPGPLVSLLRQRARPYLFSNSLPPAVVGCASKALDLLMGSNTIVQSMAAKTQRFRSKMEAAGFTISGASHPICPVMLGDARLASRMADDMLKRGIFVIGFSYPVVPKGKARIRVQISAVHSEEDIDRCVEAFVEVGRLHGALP
Chain of UniProt Q9Y2U5 (Q9Y2U5 whole entry): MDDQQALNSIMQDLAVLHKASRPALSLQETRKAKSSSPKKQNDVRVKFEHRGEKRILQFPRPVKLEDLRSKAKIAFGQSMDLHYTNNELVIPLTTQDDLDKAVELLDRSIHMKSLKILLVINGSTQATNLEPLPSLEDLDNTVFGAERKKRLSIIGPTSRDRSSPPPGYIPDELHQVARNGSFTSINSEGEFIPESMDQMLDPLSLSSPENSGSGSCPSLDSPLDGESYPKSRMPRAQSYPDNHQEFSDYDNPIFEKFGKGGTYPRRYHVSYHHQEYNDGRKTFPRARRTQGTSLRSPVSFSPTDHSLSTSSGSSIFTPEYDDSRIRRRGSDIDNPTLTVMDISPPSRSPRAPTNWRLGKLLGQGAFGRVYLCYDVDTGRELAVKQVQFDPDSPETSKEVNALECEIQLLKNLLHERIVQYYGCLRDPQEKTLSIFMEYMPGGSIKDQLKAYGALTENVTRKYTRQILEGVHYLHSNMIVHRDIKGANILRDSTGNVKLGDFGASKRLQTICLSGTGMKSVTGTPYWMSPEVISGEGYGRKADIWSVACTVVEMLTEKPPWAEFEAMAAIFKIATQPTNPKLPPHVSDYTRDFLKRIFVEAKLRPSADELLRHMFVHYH
Chain of UniProt Q5JRA6 (Q5JRA6 whole entry): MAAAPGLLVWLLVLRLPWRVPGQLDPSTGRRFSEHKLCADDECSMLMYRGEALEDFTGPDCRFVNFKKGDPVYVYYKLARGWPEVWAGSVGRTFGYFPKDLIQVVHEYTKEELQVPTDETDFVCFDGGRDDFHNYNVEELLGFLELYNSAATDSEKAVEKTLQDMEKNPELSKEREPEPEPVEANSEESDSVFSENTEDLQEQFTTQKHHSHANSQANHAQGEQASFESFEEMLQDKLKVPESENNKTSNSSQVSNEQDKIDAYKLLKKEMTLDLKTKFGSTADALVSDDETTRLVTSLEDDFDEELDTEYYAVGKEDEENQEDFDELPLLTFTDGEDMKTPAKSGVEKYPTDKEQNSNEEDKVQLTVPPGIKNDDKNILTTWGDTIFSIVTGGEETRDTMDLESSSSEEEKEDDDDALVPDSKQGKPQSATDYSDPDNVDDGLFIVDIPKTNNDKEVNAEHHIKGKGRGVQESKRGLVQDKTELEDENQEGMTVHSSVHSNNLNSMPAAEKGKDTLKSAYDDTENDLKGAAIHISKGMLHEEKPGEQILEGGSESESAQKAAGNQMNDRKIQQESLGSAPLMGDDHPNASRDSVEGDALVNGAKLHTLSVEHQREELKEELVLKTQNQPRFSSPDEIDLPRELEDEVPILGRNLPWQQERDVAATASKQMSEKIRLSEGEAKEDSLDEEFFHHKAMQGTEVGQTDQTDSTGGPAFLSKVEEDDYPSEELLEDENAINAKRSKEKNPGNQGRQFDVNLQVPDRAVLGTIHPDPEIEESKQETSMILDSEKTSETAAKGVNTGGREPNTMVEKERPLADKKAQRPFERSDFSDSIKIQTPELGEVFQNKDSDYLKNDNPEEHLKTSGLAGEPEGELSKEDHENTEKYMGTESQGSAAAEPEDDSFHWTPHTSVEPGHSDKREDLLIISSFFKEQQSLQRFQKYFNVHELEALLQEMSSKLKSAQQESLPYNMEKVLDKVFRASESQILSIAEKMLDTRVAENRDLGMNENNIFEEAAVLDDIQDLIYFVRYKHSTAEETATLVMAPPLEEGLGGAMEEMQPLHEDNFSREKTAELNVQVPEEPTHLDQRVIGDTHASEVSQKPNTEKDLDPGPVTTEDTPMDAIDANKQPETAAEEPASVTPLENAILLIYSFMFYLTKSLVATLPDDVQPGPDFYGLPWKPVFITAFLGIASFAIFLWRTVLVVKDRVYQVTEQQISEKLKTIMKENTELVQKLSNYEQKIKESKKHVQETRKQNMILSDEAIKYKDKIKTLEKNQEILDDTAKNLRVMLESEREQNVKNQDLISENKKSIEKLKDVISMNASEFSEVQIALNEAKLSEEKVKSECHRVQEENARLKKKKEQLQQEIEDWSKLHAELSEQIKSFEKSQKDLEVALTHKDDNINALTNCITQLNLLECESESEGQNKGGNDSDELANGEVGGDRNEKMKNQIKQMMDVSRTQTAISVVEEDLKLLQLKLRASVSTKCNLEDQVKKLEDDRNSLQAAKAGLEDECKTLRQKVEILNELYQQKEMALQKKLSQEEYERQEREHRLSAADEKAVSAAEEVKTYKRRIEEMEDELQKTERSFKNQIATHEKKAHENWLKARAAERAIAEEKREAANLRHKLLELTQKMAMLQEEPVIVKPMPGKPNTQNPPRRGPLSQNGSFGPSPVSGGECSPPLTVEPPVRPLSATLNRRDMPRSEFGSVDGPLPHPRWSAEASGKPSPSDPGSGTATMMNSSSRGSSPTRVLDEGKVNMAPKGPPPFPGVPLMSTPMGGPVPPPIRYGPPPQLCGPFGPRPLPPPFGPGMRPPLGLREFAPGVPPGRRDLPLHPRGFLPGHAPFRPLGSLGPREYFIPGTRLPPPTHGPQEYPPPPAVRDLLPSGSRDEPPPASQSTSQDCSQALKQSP
Chain of UniProt P55268 (P55268 whole entry): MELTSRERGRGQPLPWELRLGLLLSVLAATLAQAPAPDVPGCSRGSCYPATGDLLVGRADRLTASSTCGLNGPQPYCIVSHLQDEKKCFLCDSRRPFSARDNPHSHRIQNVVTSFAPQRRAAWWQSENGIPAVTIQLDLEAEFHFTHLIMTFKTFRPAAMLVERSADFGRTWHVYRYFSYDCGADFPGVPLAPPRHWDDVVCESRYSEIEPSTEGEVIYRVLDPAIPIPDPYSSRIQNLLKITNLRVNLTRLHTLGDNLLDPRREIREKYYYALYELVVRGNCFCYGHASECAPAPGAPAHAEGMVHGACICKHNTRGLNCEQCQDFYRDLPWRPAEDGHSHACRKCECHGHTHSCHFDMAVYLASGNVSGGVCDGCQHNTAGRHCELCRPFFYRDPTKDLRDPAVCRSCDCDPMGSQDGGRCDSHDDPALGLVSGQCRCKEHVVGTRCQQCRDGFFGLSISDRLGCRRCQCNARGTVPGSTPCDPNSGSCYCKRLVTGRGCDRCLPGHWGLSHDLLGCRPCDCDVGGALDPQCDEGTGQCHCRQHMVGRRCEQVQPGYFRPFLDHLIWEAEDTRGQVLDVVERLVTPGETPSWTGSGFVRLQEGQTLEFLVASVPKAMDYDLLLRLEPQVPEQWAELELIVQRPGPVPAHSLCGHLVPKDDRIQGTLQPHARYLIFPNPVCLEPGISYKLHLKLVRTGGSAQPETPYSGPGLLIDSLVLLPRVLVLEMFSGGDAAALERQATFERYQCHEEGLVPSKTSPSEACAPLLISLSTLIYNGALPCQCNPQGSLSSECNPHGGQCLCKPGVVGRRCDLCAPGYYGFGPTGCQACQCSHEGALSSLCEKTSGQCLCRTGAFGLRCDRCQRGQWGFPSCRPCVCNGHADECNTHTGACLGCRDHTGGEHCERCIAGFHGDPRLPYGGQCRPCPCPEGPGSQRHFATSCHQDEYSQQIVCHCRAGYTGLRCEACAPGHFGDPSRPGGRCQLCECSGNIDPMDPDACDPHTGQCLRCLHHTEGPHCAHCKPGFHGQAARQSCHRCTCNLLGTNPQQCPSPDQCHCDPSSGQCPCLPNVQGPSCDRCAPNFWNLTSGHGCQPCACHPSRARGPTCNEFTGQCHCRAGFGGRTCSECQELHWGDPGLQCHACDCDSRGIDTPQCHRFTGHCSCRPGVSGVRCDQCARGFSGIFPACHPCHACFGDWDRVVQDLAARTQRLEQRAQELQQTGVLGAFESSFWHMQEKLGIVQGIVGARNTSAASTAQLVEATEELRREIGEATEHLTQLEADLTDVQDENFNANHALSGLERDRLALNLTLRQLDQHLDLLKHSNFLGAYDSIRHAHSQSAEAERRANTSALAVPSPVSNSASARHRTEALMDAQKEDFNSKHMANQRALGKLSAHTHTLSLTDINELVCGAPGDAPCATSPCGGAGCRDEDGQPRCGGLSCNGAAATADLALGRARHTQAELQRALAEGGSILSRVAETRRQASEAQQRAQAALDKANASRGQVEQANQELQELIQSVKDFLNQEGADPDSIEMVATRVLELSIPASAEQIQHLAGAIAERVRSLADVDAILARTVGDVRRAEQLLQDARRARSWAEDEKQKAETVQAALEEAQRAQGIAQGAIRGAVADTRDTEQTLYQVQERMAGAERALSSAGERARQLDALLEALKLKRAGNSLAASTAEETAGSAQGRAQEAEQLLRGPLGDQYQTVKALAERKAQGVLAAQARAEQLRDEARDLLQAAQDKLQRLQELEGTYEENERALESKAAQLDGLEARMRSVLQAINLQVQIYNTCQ
Chain of UniProt Q8NBA8 (Q8NBA8 whole entry): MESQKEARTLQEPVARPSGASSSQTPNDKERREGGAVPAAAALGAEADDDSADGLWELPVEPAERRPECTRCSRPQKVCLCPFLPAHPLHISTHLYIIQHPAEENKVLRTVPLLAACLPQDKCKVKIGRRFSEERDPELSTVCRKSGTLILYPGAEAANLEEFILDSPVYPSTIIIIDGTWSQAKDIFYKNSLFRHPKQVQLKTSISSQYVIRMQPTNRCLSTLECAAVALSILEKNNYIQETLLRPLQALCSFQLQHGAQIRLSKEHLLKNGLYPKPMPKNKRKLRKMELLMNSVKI

With MFSD5 (UniProt Q6N075), the thermal stability z-score in the assay with potassium arsenate came to 0.661; in the assay with lipoamide (setting [1]) it was 0.0483; with lipoamide (arsenate co-treatment: none) it was 0.442.
The like results for PKM (UniProt P14618) were, in that order, -0.166, 0.109 and 0.0166.
The matching figures for DGAT1 (UniProt O75907): -0.264, -0.44 and -0.27.
With POP5 (UniProt Q969H6), the thermal stability z-score with potassium arsenate is -0.617; with lipoamide (setting [1]), -0.5; with lipoamide (arsenate co-treatment: none), -0.587.
The matching figures for CEP55 (UniProt Q53EZ4): -0.0317, -0.129 and -0.0226.
In the case of MRPS24 (UniProt Q96EL2), the thermal stability z-score was -0.497 with potassium arsenate, -0.239 with lipoamide (setting [1]) and -0.0199 with lipoamide (arsenate co-treatment: none).
The like results for UQCRH (UniProt P07919) were, in that order, 0.58, 1.35 and 1.45.
The like results for COX20 (UniProt Q5RI15) were, in that order, -0.19, -0.11 and -0.155.
The like results for ADCK3 (UniProt Q8NI60) were, in that order, 0.0575, -0.0263 and 0.19.
Take MAP3K2 (UniProt Q9Y2U5): the thermal stability z-score was -0.71 in the assay with potassium arsenate, 0.15 with lipoamide (setting [1]) and -0.461 with lipoamide (arsenate co-treatment: none).
The matching figures for ATP2A2 (UniProt P16615): -0.0158, -1.16 and -0.667.
MRPL32 (UniProt Q9BYC8): the results for the thermal stability z-score in the assay with potassium arsenate, with lipoamide (setting [1]) and in the assay with lipoamide (arsenate co-treatment: none) were -0.401, -0.0526 and 0.482, respectively.
The matching figures for JUP (UniProt P14923): 1.07, 2.23 and 2.78.
The matching figures for GCAT (UniProt O75600): 1.38, -0.752 and -1.04.
The like results for KARS (UniProt Q15046) were, in that order, 1.5, -0.646 and -0.663.
Regarding SLC35B2 (UniProt Q8TB61), the thermal stability z-score with potassium arsenate is 0.579; in the assay with lipoamide (setting [1]), -0.113; with lipoamide (arsenate co-treatment: none), -0.134.
The matching figures for CDC26 (UniProt Q8NHZ8): 0.691, 1.32 and 0.534.
The matching figures for PARVB (UniProt Q9HBI1): -0.107, -0.459 and 0.319.
The matching figures for LTBR (UniProt P36941): 0.85, -2.06 and -1.66.
For MIEF1, the thermal stability z-score with potassium arsenate is -0.198; with lipoamide (setting [1]), -0.243; with lipoamide (arsenate co-treatment: none), -0.035.
The like results for DTWD2 (UniProt Q8NBA8) were, in that order, 0.0974, -0.283 and 0.0338.
The matching figures for IGSF3 (UniProt O75054): -0.196, 0.454 and -0.247.
The like results for MIA3 (UniProt Q5JRA6) were, in that order, 1.39, -3.32 and -2.72.
With LAMB2 (UniProt P55268), the thermal stability z-score in the assay with potassium arsenate is -0.248; in the assay with lipoamide (setting [1]), -1.69; with lipoamide (arsenate co-treatment: none) it was -1.75.
The like results for SYF2 (UniProt O95926) were, in that order, -0.951, 1.83 and 0.837.
The matching figures for YARS (UniProt P54577): 2.64, 0.161 and 0.213.
The like results for GOLPH3 (UniProt Q9H4A6) were, in that order, -0.641, -0.65 and -0.881.
